Values quoted from earlier work, collected in patent publication US20260285945A1, “OMOMYC AND KRAS INHIBITORS COMBINATION THERAPY FOR THE TREATMENT OF CANCER” (PEPTOMYC, S.L., priority 2023, published 2026).

Tested on: cancer cell proliferation
Conditions: single agent; background of the invention

CNCc1ccccc1-c1csc([C@@H](C)Nc2nc(C)nc3cc(OC)c(OC)cc23)c1 [BAY-293]
Inhibition of cancer cell proliferation, potency: weak potency
